Data on two molecules can be found in publication PMC7311426, “An amphipathic peptide with antibiotic activity against multidrug-resistant Gram-negative bacteria” (Nature Communications, 2020).

SMILES strings stand for the structures. ≈ marks a conversion by molar mass, not a printed value. Where two headings read alike, the source gives them in different places. Residues, ends and D or L forms follow the SMILES beside them.

One data set has as its system E. coli DSA 443 ESBL. Description: Murine urinary tract infection (UTI) model. The class given is in vivo, E. coli in OF-1 mice. To be noted: Prism column statistics. The method, then: Peritonitis and UTI murine models were performed at the Department of Microbiology & Infection Control, Statens Serum Institute, Copenhagen, Denmark, under approval by the National Committee of Animal Ethics, Denmark, and adhered to the standards of EU Directive 2010/63/EU. The mouse pneumonia model was performed by Evotec Ltd, United Kingdom, under UK Home Office Licenses and with local ethical committee clearance. All animal studies were contracted by Adenium Biotech ApS.
Peptides were prepared in Ringer’s acetate pH 6.0 (vehicle) at 34 mg mL^−1. Comparator antibiotics included meropenem (Meronem®, AstraZeneca), polymyxin B sulfate (Sigma) and tobramycin (Novartis).
The E. coli UTI in vivo model was prepared using an E. coli DSA 443 ESBL strain, in neutropenic outbred OF-1 female mice (Charles River, France). Starting 4 days before inoculation mice were given drinking water with 5% glucose. On day 0 mice were anaesthetized and inoculated with 50 μL bacterial suspension (1 × 10^9 CFU mL^−1) of E. coli DSA 443 ESBL, via a catheter in the urethra into the bladder. On days 1 and 2, mice were treated i.v. with vehicle (n = 18) or with twice-daily administrations of 5 mg kg^−1 AA139 (n = 12) or 40 mg kg^−1 meropenem (n = 12). Urine samples were taken on days 1–3 and on day 3 mice were killed and urine, kidneys, and bladder were collected for CFU counts on agar.

The conditions of data set [1]: inhalation, mice; for Tmax: relative to end of inhalation.
The subject of data set [2] is human primary hepatocytes. Description: Cell viability, human primary hepatocytes (Eurofins Panlabs). The class given is cell-based. On the procedure:
Cell viability of human primary hepatocytes against AA139 was assessed by fluorometric readout of Alamar Blue following 24 h incubation at 37 °C of human plateable cryopreserved hepatocytes and AA139 as an 8-point dose response, 0.1–300 μM, as described by Nociari et al.[41]. Cell viability was calculated as a percentage of the control cells and plotted versus concentration using Prism 8 Software. The IC50 value was determined by non-linear regression analysis of the concentration–response curve using the Hill equation. Assay was performed by Eurofins Pharma Discovery Services (Panlabs), St Charles, MO, USA, study number 100049990. Source data are provided as a source data file.

The next data set relates to E. coli. To be noted: E. coli MDR/ESBL; after 20 passages + 3 drug-free passages.
Another data set has as its system C. neoformans. Kind of data set: microbe, parasite or virus in culture.
In a further data set the test system is C. albicans. Kind of data set: microbe, parasite or virus in culture.
Data set [3] is described as follows: Dose range finding & MTD iv toxicity.
Setting [4] is: cynomolgus monkey, in vivo, iv, 20 mg/kg.

For `C[C@@H](O)[C@H]1C(=O)N2C(C(=O)O)=C(S[C@@H]3CN[C@H](C(=O)N(C)C)C3)[C@H](C)[C@H]12` [Meropenem, meropenem, reference compound], the “DAY 3 BLADDER, Median” value in the data set with E. coli DSA 443 ESBL (ESBL E. coli DSA 443, Meropenem 40 mg kg-1, bladder, median of n = 12) came to 3.32. Also, the “DAY 3 KIDNEY, Mean” value with E. coli DSA 443 ESBL (ESBL E. coli DSA 443, Meropenem 40 mg kg-1, kidney, mean of n = 12) was found to be 1.644. In addition, the “DAY 3 KIDNEY, Median” value in the data set with E. coli DSA 443 ESBL (ESBL E. coli DSA 443, Meropenem 40 mg kg-1, kidney, median of n = 12) was 1.4. Further, in the data set on E. coli DSA 443 ESBL (ESBL E. coli DSA 443, Meropenem 40 mg kg-1, urine, mean of n = 11), the “DAY 3 URINE, Mean” value is given as 1.229. Also, the “DAY 3 URINE, Median” value in the data set on E. coli DSA 443 ESBL (ESBL E. coli DSA 443, Meropenem 40 mg kg-1, urine, median of n = 11) was 1.

For orientation: Cmax means the highest concentration seen after dosing. Usually Tmax stands for the time from dosing to the highest level. For orientation: AUC(0-inf) means the area under the concentration-time curve extrapolated to infinity. With `CC(C)[C@@H]1NC(=O)[C@H](Cc2ccc(O)cc2)NC(=O)[C@H](Cc2c[nH]c3ccccc23)NC(=O)[C@@H](NC(=O)[C@H](Cc2ccccc2)NC(=O)CN)CSSC[C@@H](C(=O)N[C@@H](CC(N)=O)C(=O)O)NC(=O)[C@H](CCCNC(=N)N)NC(=O)[C@H](CCCNC(=N)N)NC(=O)[C@H](Cc2ccc(O)cc2)NC(=O)[C@@H]2CSSC[C@H](NC1=O)C(=O)N[C@@H](C)C(=O)N[C@@H](CCCNC(=N)N)C(=O)N[C@@H](CCCNC(=N)N)C(=O)N[C@@H](CC(N)=O)C(=O)NCC(=O)N[C@@H](C)C(=O)N[C@@H](CCCNC(=N)N)C(=O)N[C@@H](C(C)C)C(=O)N2` [AA139] (HELM PEPTIDE1{G.F.C.W.Y.V.C.A.R.R.N.G.A.R.V.C.Y.R.R.C.N}$PEPTIDE1,PEPTIDE1,3:R3-20:R3|PEPTIDE1,PEPTIDE1,7:R3-16:R3$$$V2.0), the “AUC(0-t)” value in data set [1] (ELF, Day 1, 5 mg kg-1/day) is on record as 27,250 ng*h mL-1; in data set [1] (ELF, Day 1, 40 mg kg-1/day) it was 63,300 ng*h mL-1; in data set [1] (ELF, Day 7, 5 mg kg-1/day), 58,650 ng*h mL-1; in data set [1] (Lung (ng/g), Day 1, 5 mg kg-1/day), 8,585 ng*h mL-1; in data set [1] (Lung (ng/g), Day 1, 20 mg kg-1/day), 14,411 ng*h mL-1; in data set [1] (Lung (ng/g), Day 1, 40 mg kg-1/day), 7,002 ng*h mL-1. Besides, the “AUC(0-t)” value in data set [1] (Lung (ng/g), Day 7, 5 mg kg-1/day) was 11,802 ng*h mL-1; in data set [1] (Lung (ng/g), Day 7, 20 mg kg-1/day) it was 66,791 ng*h mL-1. The maximum concentration (Cmax) in data set [1] (ELF, Day 1, 5 mg kg-1/day) is 14,750 ng mL-1; in data set [1] (ELF, Day 1, 20 mg kg-1/day) it was 8,245 ng mL-1; in data set [1] (ELF, Day 1, 40 mg kg-1/day) it was 36,300 ng mL-1; in data set [1] (ELF, Day 7, 5 mg kg-1/day), 21,100 ng mL-1; in data set [1] (ELF, Day 7, 20 mg kg-1/day) it was 42,350 ng mL-1; in data set [1] (Lung, Day 1, 5 mg kg-1/day) it was 3,935 ng/g. The Cmax in data set [1] (Lung, Day 1, 20 mg kg-1/day) is 7,691 ng/g; in data set [1] (Lung, Day 1, 40 mg kg-1/day), 16,162 ng/g; in data set [1] (Lung, Day 7, 5 mg kg-1/day), 4,228 ng/g; in data set [1] (Lung, Day 7, 20 mg kg-1/day), 15,133 ng/g; in data set [3] (setting [4]), 15800 ng/mL. In addition, the Tmax in data set [1] (ELF, Day 1, 5 mg kg-1/day) was determined as 30 min; in data set [1] (ELF, Day 1, 20 mg kg-1/day), 78 min; in data set [1] (ELF, Day 1, 40 mg kg-1/day), 0 min; in data set [1] (ELF, Day 7, 5 mg kg-1/day) it was 18 min; in data set [1] (ELF, Day 7, 20 mg kg-1/day), 0 min; in data set [1] (Lung, Day 1, 5 mg kg-1/day), 0 min. The Tmax in data set [1] (Lung, Day 1, 20 mg kg-1/day) was determined as 0 min; in data set [1] (Lung, Day 1, 40 mg kg-1/day), 0 min; in data set [1] (Lung, Day 7, 5 mg kg-1/day), 0 min; in data set [1] (Lung, Day 7, 20 mg kg-1/day), 30 min; in data set [1] (Plasma, Day 7, 5 mg kg-1/day), 18 min; in data set [1] (Plasma, Day 7, 20 mg kg-1/day) it was 0 min. Also, in data set [2] (24 h), the “IC50, human primary hepatocytes” value came out at 330 µg/mL (≈ 129 µM). Also, in data set [2] (IC50 / MIC), the “Fold higher hepatocyte IC50 over antibacterial activity against E. coli” value was 2400 fold. Further, the “Fold higher hepatocyte IC50 over antibacterial activity against K. pneumoniae” value in data set [2] (IC50 / MIC) turned out to be 300 fold. In addition, the “Final MIC” value in the data set with E. coli turned out to be 1 µg/mL. Further, the “BMD MIC” value was 1 µg/mL with C. neoformans, not below 32 µg/mL in the data set on C. albicans and 64 µg/mL in the data set on C. albicans (24 h). For the same molecule, the “MIC against Cryptococcus neoformans” value against C. neoformans was in the range of 1 to 4 µg/mL. The same molecule came in with a total exposure AUC(0-inf) in data set [3] (setting [4]) of 80300 ng·h/mL. This molecule also registered an NOAEL in monkeys in data set [3] (i.v. over 2 h QD or BID) of 15 mg kg^−1 per day.
